Source: US20240156097A1, “AGROCHEMICAL ADJUVANTS FROM STACHYBOTRYS CHARTARUM” (Croda International Plc, priority 2021, published 2024)

What was measured:
[1] = test system: African green monkey Vero kidney cells (ATCC CCL-81); assay: Cytotoxicity against Vero cells (alamarBlue); format: cell-based; conditions: highest concentration tested (128 μg/mL); 24 hours
Description: The cytotoxicity of the phenylspirodrimanes and stachybocin A was assessed in vitro against African green monkey Vero kidney cells (ATCC CCL-81). Cells were cultured in 15 mL of Eagle's minimal essential medium (Sigma) supplemented with 10% (v/v) fetal bovine serum (VWR), […] and 0.1 mg/mL streptomycin in T75 cm^2 cell culture flasks. Cells were incubated for 24 hours at 37° C. in a humidified atmosphere of 5% CO2. Culture medium was refreshed every 2-3 days and cells were not allowed to exceed 80% confluency.
At 80% confluency the cells were counted, diluted and plated into 96 well flat bottom cell culture plates (Corning) at a cell density of 10,000 cells per well in 90 μL of growth medium. The plates were incubated at 37° C. in a humidified atmosphere of 5% CO2 for 24 hours to allow cells to adhere to the plate before treatment. […]
The plates were incubated at 37° C. in a humidified atmosphere of 5% C02 for 24 hours after which alamarBlue (Invitrogen) was added to each well at 10% of the culture volume. Fluorescence was monitored using a Thermo Scientific Varioskan Flash plate reader at 560/12 excitation, 590 nm emission both at time zero and 4 hrs after alamarBlue addition. After subtracting the time zero emission 590 nm measurement from the final reading, the inferred percentage of cell viability relative to the vehicle control wells was calculated.

[2] = test system: Botrytis cinerea (ATCC 90479); assay: Adjuvancy: growth inhibition of Botrytis cinerea on agar with fungicide and/or adjuvant (colony diameter); format: cell-based; conditions: for Fold Change in Growth Inhibition: 48 h, 22° C.; for inherent fungicidal activity on their own: adjuvant alone, any of the concentrations tested; for fungicidal activity compared to dimethomorph, prothioconazole, mancozeb, metalaxyl and pyrimethanil alone: in words, adjuvant plus fungicide
[3] = adjuvant 12.5 μg/mL + pyraclostrobin 0.1 μg/mL vs pyraclostrobin alone
[4] = adjuvant 12.5 μg/mL + pyraclostrobin 0.2 μg/mL vs pyraclostrobin alone
[5] = adjuvant 12.5 μg/mL + pyraclostrobin 0.4 μg/mL vs pyraclostrobin alone
[6] = adjuvant 12.5 μg/mL + pyraclostrobin 0.8 μg/mL vs pyraclostrobin alone
[7] = adjuvant 12.5 μg/mL + tebuconazole 0.05 μg/mL vs tebuconazole alone
[8] = adjuvant 12.5 μg/mL + tebuconazole 0.10 μg/mL vs tebuconazole alone
[9] = adjuvant 12.5 μg/mL + tebuconazole 0.19 μg/mL vs tebuconazole alone
[10] = adjuvant 12.5 μg/mL + tebuconazole 0.38 μg/mL vs tebuconazole alone
[11] = adjuvant 25 μg/mL + pyraclostrobin 0.1 μg/mL vs pyraclostrobin alone
[12] = adjuvant 25 μg/mL + pyraclostrobin 0.2 μg/mL vs pyraclostrobin alone
[13] = adjuvant 25 μg/mL + pyraclostrobin 0.4 μg/mL vs pyraclostrobin alone
[14] = adjuvant 25 μg/mL + pyraclostrobin 0.8 μg/mL vs pyraclostrobin alone
[15] = adjuvant 25 μg/mL + tebuconazole 0.05 μg/mL vs tebuconazole alone
[16] = adjuvant 25 μg/mL + tebuconazole 0.10 μg/mL vs tebuconazole alone
[17] = adjuvant 25 μg/mL + tebuconazole 0.19 μg/mL vs tebuconazole alone
[18] = adjuvant 25 μg/mL + tebuconazole 0.38 μg/mL vs tebuconazole alone
[19] = adjuvant 50 μg/mL + pyraclostrobin 0.1 μg/mL vs pyraclostrobin alone
[20] = adjuvant 50 μg/mL + pyraclostrobin 0.2 μg/mL vs pyraclostrobin alone
[21] = adjuvant 50 μg/mL + pyraclostrobin 0.4 μg/mL vs pyraclostrobin alone
[22] = adjuvant 50 μg/mL + pyraclostrobin 0.8 μg/mL vs pyraclostrobin alone
[23] = adjuvant 50 μg/mL + tebuconazole 0.05 μg/mL vs tebuconazole alone
[24] = adjuvant 50 μg/mL + tebuconazole 0.10 μg/mL vs tebuconazole alone
[25] = adjuvant 50 μg/mL + tebuconazole 0.19 μg/mL vs tebuconazole alone
[26] = adjuvant 50 μg/mL + tebuconazole 0.38 μg/mL vs tebuconazole alone

CC1CCC2C(C)(C)C(O)CCC2(C)C12Cc1c(O)cc3c(c1O2)CN(CCCCC(C(=O)O)N1Cc2c(cc(O)c4c2OC2(C4)C(C)CCC4C(C)(C)C(O)CCC42C)C1=O)C3=O (stereo not drawn) [Sta A (IIa), stachybocin A]
cytotoxicity against Vero cells [1]: did not exhibit any cytotoxicity
Fold Change in Growth Inhibition [2, 3]: 2.92
Fold Change in Growth Inhibition [2, 4]: 1.00
Fold Change in Growth Inhibition [2, 5]: 1.00
Fold Change in Growth Inhibition [2, 6]: 1.00
Fold Change in Growth Inhibition [2, 7]: 12.70
Fold Change in Growth Inhibition [2, 8]: 2.83
Fold Change in Growth Inhibition [2, 9]: 2.36
Fold Change in Growth Inhibition [2, 10]: 1.00
Fold Change in Growth Inhibition [2, 11]: 2.92
Fold Change in Growth Inhibition [2, 12]: 1.00
Fold Change in Growth Inhibition [2, 13]: 1.00
Fold Change in Growth Inhibition [2, 14]: 1.00
Fold Change in Growth Inhibition [2, 15]: 14.29
Fold Change in Growth Inhibition [2, 16]: 2.67
Fold Change in Growth Inhibition [2, 17]: 1.81
Fold Change in Growth Inhibition [2, 18]: 1.00
Fold Change in Growth Inhibition [2, 19]: 2.25
Fold Change in Growth Inhibition [2, 20]: 1.00
Fold Change in Growth Inhibition [2, 21]: 1.47
Fold Change in Growth Inhibition [2, 22]: 1.08
Fold Change in Growth Inhibition [2, 23]: 12.70
Fold Change in Growth Inhibition [2, 24]: 2.17
Fold Change in Growth Inhibition [2, 25]: 1.36
Fold Change in Growth Inhibition [2, 26]: 1.00
inherent fungicidal activity on their own [2]: did not demonstrate any inherent fungicidal activity
fungicidal activity compared to dimethomorph, prothioconazole, mancozeb, metalaxyl and pyrimethanil alone [2]: showed increased fungicidal activity

CC1CCC2C(C)(C)C(O)CCC2(C)C12Cc1c(O)cc3c(c1O2)CN(C(Cc1ccccc1)C(=O)O)C3=O (stereo not drawn) [Phe (Ib), phenylspirodrimane (Ib)]
cytotoxicity against Vero cells [1]: did not exhibit any cytotoxicity
Fold Change in Growth Inhibition [2, 3]: 3.59
Fold Change in Growth Inhibition [2, 4]: 1.11
Fold Change in Growth Inhibition [2, 5]: 1.47
Fold Change in Growth Inhibition [2, 6]: 1.55
Fold Change in Growth Inhibition [2, 7]: 22.22
Fold Change in Growth Inhibition [2, 8]: 2.83
Fold Change in Growth Inhibition [2, 9]: 2.17
Fold Change in Growth Inhibition [2, 10]: 1.03
Fold Change in Growth Inhibition [2, 11]: 4.25
Fold Change in Growth Inhibition [2, 12]: 1.56
Fold Change in Growth Inhibition [2, 13]: 1.08
Fold Change in Growth Inhibition [2, 14]: 1.19
Fold Change in Growth Inhibition [2, 15]: 7.94
Fold Change in Growth Inhibition [2, 16]: 1.67
Fold Change in Growth Inhibition [2, 17]: 1.83
Fold Change in Growth Inhibition [2, 18]: 1.00
Fold Change in Growth Inhibition [2, 19]: 17.87
Fold Change in Growth Inhibition [2, 20]: 1.67
Fold Change in Growth Inhibition [2, 21]: 1.62
Fold Change in Growth Inhibition [2, 22]: 1.57
Fold Change in Growth Inhibition [2, 23]: 14.29
Fold Change in Growth Inhibition [2, 24]: 4.33
Fold Change in Growth Inhibition [2, 25]: 2.36
Fold Change in Growth Inhibition [2, 26]: 1.00
inherent fungicidal activity on their own [2]: did not demonstrate any inherent fungicidal activity
fungicidal activity compared to dimethomorph, prothioconazole, mancozeb, metalaxyl and pyrimethanil alone [2]: showed increased fungicidal activity
